Experimental findings from US20260193221A1, “SOLID FORMS COMPRISING (5R,6S)-10,11-DIFLUORO-12-((2-FLUORO-4-IODOPHENYL)AMINO)-5,6-DIHYDROXY-4,5,6,7-TETRAHYDRO-1H-SPIRO[BENZO[B][1,5,4]OXATHIAZECINE-3,1'-CYCLOPROPANE] 2,2-DIOXIDE, AND COMPOSITIONS COMPRISING AND METHODS OF USING THE SAME” (PASITHEA THERAPEUTICS CORP., priority 2024, published 2026) are described below.

Data set [1] in a line: Solubility, Experiment 1 (target concentration 2 mg/mL). To be noted: 37° C.; for Solubility: target concentration 2 mg/mL. The format is physicochemical. The procedure: Experiment 1: 5 mg of Form A and 5 mg of amorphous form were weighed into an 8 mL glass vial, respectively. 2.5 mL of solubility medium was added. Obtained suspensions/solutions were stirred at 37° C. at 400 rpm and sampled at 2 hours and at 24 hours. Obtained suspensions/solutions were filtered through a 0.45 μm PVDF membrane filter by centrifugation at 14,000 rpm and at 37° C. Filtrate were analyzed by HPLC and pH meter for solubility and pH value, respectively. Residual solids (wet cakes) from the 24 hours samples were also characterized by XRPD to determine physical form.

Data set [2] in a line: Solubility, Experiment 2 (target concentration 5 mg/mL). The format is physicochemical. As to conditions: 37° C. Here is the method:
Experiment 2: 5 mg of Form A and 5 mg of amorphous form were weighed into an 8 mL glass vial, respectively. 1 mL of solubility medium was added. Obtained suspensions/solutions were stirred at 37° C. at 400 rpm and sampled at 2 hours and at 24 hours. Obtained suspensions/solutions were filtered through a 0.45 μm PVDF membrane filter by centrifugation at 14,000 rpm and at 37° C. Filtrate were analyzed by HPLC and pH meter for solubility and pH value, respectively.

Data set [3] is described as follows: Phase 1 clinical trial, pharmacokinetics. To be noted: for AUC0-24 / Cmin / half-life / Cmax: patients; for AUC0-24 / Cmin / Cmax: geometric mean (geometric CV %); for half-life / Cmax: human, plasma, po. The format is in vivo, human. An excerpt: (§1) A Phase 1 Open-Label Study to Assess the Safety, Tolerability, Pharmacokinetics, and Pharmacodynamics of Compound 1 in Patients with MAPK Pathway-Driven Advanced Solid Tumors with a Documented RAS, NF1, or RAF Mutation or Patients Who have Failed BRAF/MEK Inhibition
(§2) The Phase 1 clinical trial is a multi-center, open-label, dose escalation 3+3 study design to evaluate the safety, tolerability, pharmacokinetic (PK), pharmacodynamic (PD), and preliminary efficacy of Compound 1 in patients with MAPK pathway driven advanced solid tumors with a documented RAS, NF or RAF mutation or patients who have failed BRAF/MEK inhibition.
(§3) Patients with histologically or cytologically diagnosed mitogen-activated protein kinase (MAPK) pathway driven advanced solid tumors with all of the following characteristics qualified for enrollment: • i. tumor cannot be surgically resected • ii. patient has failed or is ineligible for standard of care therapy • iii. patient has no available treatment options with known clinical benefit • iv. documented evidence of rat sarcoma virus (RAS), neurofibromatosis type I (NF1), and/or rapidly accelerated fibrosarcoma (RAF) mutations. Patients with RAF mutations must have previously failed v-Raf murine sarcoma viral oncogene homolog B (BRAF)/MEK inhibition.
(§4) Patients in the study were administered Compound 1 by mouth as a single dose, followed by one week observation, then once a day during the study, in 28-day cycles. Participants will continue on daily Compound 1 for up to 2 years, or until: • i. they decide to withdraw from the study, or • ii. they experience unacceptable side effects, or • iii. their disease progresses, or another illness interferes with taking the study drug, or • iv. the sponsors stops the study.
(§5) In this study, Compound 1 was presented in 1 mg, 4 mg, and 10 mg strength capsules, intended for oral administration once daily. Sequential dose escalation is: 2 mg, 4 mg, 8 mg, 15 mg, 22 mg, 30 mg, 37 mg, and 45 mg.

Data set [4] can be described thus: Phase 1 clinical trial, safety and tolerability. The format is in vivo, human.
Description: as §1, §2, §3, §4, §5

Where [5] appears, read: Acetate buffer (50 mM), pH 4.5, 24 h.
Setting [6] is: Phosphate buffer (50 mM), pH 6.8, 24 h.
Setting [7] is: 2 mg, Day 22 (steady state), oral once daily.
The mark [8] stands for this setting: 4 mg, Day 22 (steady state), oral once daily.

In brackets after ≈: the same amount, converted by molar mass. Entries after “also recorded” stand apart in the source; their conditions may differ. Like-named read-outs stand apart in the source and are kept apart here.

Consider `O=S1(=O)Nc2c(cc(F)c(F)c2Nc2ccc(I)cc2F)OC[C@H](O)[C@H](O)CC12CC2` [Amorphous form, (5R,6S)-10,11-difluoro-12-((2-fluoro-4-iodophenyl)amino)-5,6-dihydroxy-4,5,6,7-tetrahydro-1H-spiro[benzo[b][1,5,4]oxathiazecine-3,1′-cyclopropane]2,2-dioxide], for which the Solubility (commonly the concentration that dissolves in the medium under given conditions) in data set [1] (Acetate buffer (50 mM), pH 4.5, 2 h) was 0.017 mg/mL (≈ 29.8 µM); in data set [1] (setting [5]), 0.017 mg/mL (≈ 29.8 µM); in data set [1] (FaSSGF, pH 1.6, 2 h) it was 0.016 mg/mL (≈ 28.1 µM); in data set [1] (FaSSGF, pH 1.6, 24 h) it was 0.014 mg/mL (≈ 24.5 µM); in data set [1] (FaSSIF-v1, pH 6.5, 2 h) it was 1.1 mg/mL (≈ 1930 µM); in data set [1] (FaSSIF-v1, pH 6.5, 24 h), 1.2 mg/mL (≈ 2100 µM). Further, the Solubility is greater than 2 mg/mL in data set [1] (FeSSIF-v1, pH 5.0, 2 h); greater than 2 mg/mL in data set [1] (FeSSIF-v1, pH 5.0, 24 h); 0.014 mg/mL (≈ 24.5 µM) in data set [1] (HCl solution, pH 1.2, 2 h); 0.013 mg/mL (≈ 22.8 µM) in data set [1] (HCl solution, pH 1.2, 24 h); 0.016 mg/mL (≈ 28.1 µM) in data set [1] (Phosphate buffer (50 mM), pH 6.8, 2 h); 0.016 mg/mL (≈ 28.1 µM) in data set [1] (setting [6]). The Solubility in data set [1] (Water, 2 h) was 0.038 mg/mL (≈ 66.6 µM); in data set [1] (Water, 24 h), 0.034 mg/mL (≈ 59.6 µM); in data set [2] (FeSSIF-v1, pH 5.0, 2 h) it was greater than 5 mg/mL; in data set [2] (FeSSIF-v1, pH 5.0, 24 h), greater than 5 mg/mL. Besides, the “XRPD of residual solid” value in data set [1] (setting [5]) is recorded as “Amorphous”; in data set [1] (FaSSGF, pH 1.6, 24 h), “Amorphous”; in data set [1] (FaSSIF-v1, pH 6.5, 24 h), “Amorphous”; in data set [1] (HCl solution, pH 1.2, 24 h), “Form A”; in data set [1] (setting [6]), “Amorphous”; in data set [1] (Water, 24 h), “Amorphous”.
For the compound `O=S1(=O)Nc2c(cc(F)c(F)c2Nc2ccc(I)cc2F)OC[C@H](O)[C@H](O)CC12CC2` [Compound 1, (5R,6S)-10,11-difluoro-12-((2-fluoro-4-iodophenyl)amino)-5,6-dihydroxy-4,5,6,7-tetrahydro-1H-spiro[benzo[b][1,5,4]oxathiazecine-3,1′-cyclopropane]2,2-dioxide], in data set [3] (2 mg and 4 mg cohorts), the “Dose dependence of plasma exposure” value is recorded as “linear PK was observed”. For the same compound, the AUC0-24 in data set [3] (2 mg, Day 1, oral) is listed as 86.3 (89.2) ng*h/mIL; in data set [3] (setting [7]) it was 354 (95.2) ng*h/mIL; in data set [3] (4 mg, Day 1, oral), 100 (97.1) ng*h/mIL; in data set [3] (setting [8]), 1,390 (12.8) ng*h/mIL. The Cmin in data set [3] (setting [7]) is 10.2 (119.4) ng/mL; in data set [3] (setting [8]) it was 51.5 (20.8) ng/mL. Further, the “time at which drug levels peaked” value in data set [3] (at steady-state, 2 mg and 4 mg dose groups) is recorded as “about 5 hours”. Besides, the half-life – broadly, the time in which the quantity being followed falls by half – is roughly 2.92 days in data set [3] (2 mg and 4 mg cohorts, oral, read-out: half-life (converted)); 2.83 days in data set [3] (2 mg and 4 mg cohorts, oral, read-out: mean elimination half-life (converted)). For the same compound, the Cmax (as a rule, the peak of the concentration-time curve) was 4.91 ng/mL in data set [3] (2 mg, Day 1, oral); 16.2 ng/mL in data set [3] (setting [7]); 6.36 ng/mL in data set [3] (4 mg, Day 1, oral); 61.3 ng/mL in data set [3] (setting [8]). Also, the Cmax/Cmin ratio in data set [3] (plasma concentration at steady state) turned out to be 1.2. Further, the “Rash or skin, gastrointestinal (GI), ocular toxicity” value in data set [4] (2 and 4 mg dose levels) was “without showing adverse side effects such as rash or GI toxicity; also recorded: no rash or skin toxicity, gastrointestinal (GI) toxicity, or ocular toxicity have been observed”. In data set [4] (any dose arm), the “Drug-related serious adverse events (SAE)” value is reported as “no drug-related serious adverse events”. The “Drug-related dose interruptions, reductions or discontinuations” value in data set [4] (first 2 dosing cohorts (n=6)) is on record as “no drug-related dose interruptions, reductions or discontinuations”. For the same compound, the Tolerability entry in data set [4] (first 2 dosing cohorts (n=6), 2 mg and 4 mg) was “well-tolerated”.
